Tests used:
[1] = system: Cholangiocarcinoma (SNU-478) cells; settings: SNU-478, 24 hours incubation, WST-1
Method: (§1) To determine synergy and the concentration of a chemotherapy agent such as doxorubicin to co-administer with LATTE, cell culture experiments were performed.
(§2) HepG2 human liver cancer cell line (ATCC CRL10741; American Type Culture Collection, Manassas, VA, USA) were cultured in 75 cm^2 flasks using growth medium consisting of low glucose Dulbecco's Modified Eagle Medium (DMEM, ThermoFisher) and 10% heat-inactivated bovine serum that was supplemented with 100 IU penicillin and 10 μg/mL streptomycin (Thermo Fisher Scientific). […] The anticancer activity of LATTE on HepG2 was determined using WST-1 reagent (2-(4-Iodophenyl)-3-(4-nitrophenyl)-5-(2,4-disulfophenyl)-2H-tetrazolium sodium) assay as an indication of viability/cytotoxicity treatment. WST-1 viability assay is based on the reduction of tetrazolium salt, WST-1 to an […] formazan dye by electron transport across the plasma membrane in viable cells that alter the optical density of the media. […] At the end of the incubation period, the medium was discarded, and the wells were rinsed three times with DPBS solution followed by addition of 100 μL growth medium and 10 μL of freshly prepared WST-1 reagent into each well and then incubated for 2 hours inside the 5% CO2 incubator at 37° C. After the incubation period, the optical percent density was measured using a microplate reader at a wavelength of 450 nm (SpectraMax iD5, Molecular Devices, San Jose, CA). Cell viability was calculated relative to control wells that received the growth medium alone. Viability rate was calculated as follows: Viability (%)=[…].

[2] = system: pancreas ductal adenocarcinoma (Panc-1) cells; settings: Panc-1, 24 hours incubation, WST-1
Method: as §1, §2

[3] = system: patient derived cholangiocarcinoma, pancreas adenocarcinoma cell lines and HepG2 hepatocellular carcinoma cells; settings: three cell lines, serially diluted 25-0.048% w/v, 24 or 48 hours
Method: as §1, §2

[4] = system: human blood clot
Method: In a separate experiment blood coagulation was induced in uncougulated human. A blood volume of 4 mL citrated blood loaded into a polypropylene tube and mixed with 400 μL of 0.2 M calcium chloride (CaCl2) for 10 seconds. Aliquouts of 100 μL were deposited into multiple wells on a 96 well plate and the remaining blood volume was kept in the tube. Coagulation was initiated by incubating the samples at 37° C. for 10 minutes.

[5] = rat, in vivo
Method: Next, in vivo experiments in immunocompetent rats bearing the highly malignant orthotropic N1S1 liver tumors were ablated using LATTE. Percutaneous injection of LATTE was performed and assessment also included CT imaging to mimic the clinical scenario. […] These tumors also received high-resolution in vivo micro-CT imaging following intravenous injection of Exitron contrast agent to allow accurate segmentation of the liver tumors (FIG. 1p-q). […] These tumors at two-weeks were also harvested and evaluated by histology.
(§3) All procedures were approved by the institutional animal care and use committee and performed according to institutional guidelines. […] N1S1 cells were maintained in suspension in a 75 cm^2 culture flasks at 37° C. in a 5% CO2 humidified chamber. […] To prepare the cells for inoculation, N1S1 cell aliquots were rinsed and suspended in plain IMDM (without antibiotics or serum) to yield 2×10^6 cells in 100 μL of fresh aliquots for each inoculation. The rat liver was surgically exposed through upper midline laparotomy under isoflurane anesthesia followed by subcapsular inoculation of N1S1 cells into the left liver lobe. Gentle compression with gauze for hemostasis was used to prevent cell reflux. The abdominal incision was closed using interrupted Vicryl sutures for abdominal muscle and subcuticular suture for the skin, followed by the application of Vetbond tissue adhesive (3M, St. Paul, MN) followed by recovery from anesthesia. Intratumoral injection of the ionic liquid mixture was performed in three groups of rats bearing 0.5 cm^3 N1S1 tumor lesions measured with ultrasound. […] All solutions contained 0.25 mg/mL indocyanine green (ICG, Sigma-Aldrich, St. Louis, MO) solubilized in normal saline. Following intratumoral injections, treated rats were allowed to survive for 2 weeks after treatment, and tumor volume was documented using ultrasound. N1S1 tumor progression and treatment response was assessed using percutaneous ultrasonography. Selected focal zone depth, gain, and tissue harmonic settings were optimized during the acquisition of the initial imaging at baseline, and the same parameters were applied during acquisition after intratumoral injection of LATTE mixture. Serial ultrasound examinations were performed on rat livers following N1S1 inoculation to confirm tumor formation and assess tumor volume. Rats were anesthetized using a gas mixture of 2-3% isoflurane in 100% oxygen via a nose cone. Rats were secured in a supine position on an electronically controlled warming platform to maintain the temperature at 37° C. during the imaging procedure. The abdominal area was shaved and prepped with depilatory cream (Nair, Church& Dwight Co. INC). Initially, abdominal sonography was performed to delineate tumor mass boundaries in grayscale (B-mode) using ACUSON 52000 system (Siemens Inc., Germany) and a multi-frequency linear transducer (9L4, 9.0 MHz). The transducer was positioned to obtain 2D scans via the subcostal window to document liver tumors and measure lesion diameter. […] Tumor volumes were calculated as following: V=(4/3)×π×(1/2) SI×(1/2)LM×1/2 AP. Color Doppler images were also acquired to detect the distribution of the tumor blood flow weekly.

[6] = system: fat cells (adipocytes); experiment: Explanted pig fat tissue incubated with LATTE; settings: after 1 hour in LATTE solution
[7] = system: N1S1 liver tumors; experiment: Intratumoral injection of LATTE in N1S1 rat model of liver cancer; format: in vivo
Method: as §3
To visualize normal liver parenchyma on CT imaging, rats received a bolus injection of 400 μL of the alkaline earth metal-based nanoparticle suspension, Exitron nano 12000 (Miltenyi Biotec, Auburn, CA) two hours prior to micro-CT scanning. Rats were anesthetized using inhalation of 2-3% isoflurane in 100% 02 at a constant flow rate of 2 L/minute and placed on a cassette equipped with a warming system and continuous gas exchange and integrated real-time motion detection camera. Fixed rat tissues were placed and immobilized using styrofoam beads inside a humidified plastic chamber. […] The 3D image stacks were reconstructed using NRecon software and InstaRecon CBR Server (version: 1.7.4.6, Bruker, Kontich, Belgium) following adjustment of random movements, beam-hardening correction, and ring artifact reduction and smoothing. 3D volume rendering was visualized using CTVox software (version: 3.3. 0 r1383, Bruker, Kontich, Belgium). The stacks were virtually rotated and axially oriented to yield transverse projections of select volume of interest (VOI) using Data Viewer software (Bruker, Kontich, Belgium).

Substance: choline-geranate [LATTE]
- effective dose (EC50), fractional cell viability [1]: 0.2%
- effective dose (EC50), fractional cell viability [2]: 0.3%
- effective concentration that causes 50% cell death (EC50) [3]: 0.18-0.3%
- clot dissolution, coagulated blood in multi-wells ([4]; overlayed with LATTE): clot was dissolved
- lysis of blood clot formed in the tube ([4]; petri dish, incubation with LATTE): complete lysis
- ALP [5]: *211 ± 29 U/L
- ALT [5]: 57 ± 13 U/L
- BUN [5]: **25 ± 2.4 mg/dL
- CRE [5]: 0.3 ± 0.04 mg/dL
- CRP [5]: 459 ± 38 ng/mL
- GLU [5]: 268 ± 75 mg/dL
- Total Protein [5]: 5.2 ± 0.3 g/dL
- liver and renal function from serum samples [5]: normal liver and renal function
- fat depletion from adipocytes [6]: fat was depleted
- tumor volume by micro-CT vs saline ([7]; 2 weeks post-treatment): substantially smaller tumor volumes
- tumor size on gray-scale US, smaller than saline injected group ([7]; 25%-LATTE intratumoral, two weeks): 5 fold
- CD68-expressing macrophages, increase ([7]; tumor sections, two weeks): 16 fold
- number of apoptotic (cleaved Caspase-3) cells, higher than saline group ([7]; tumor sections, two weeks): 24 fold
- treatment response on micro-CT review by radiologist, size criteria ([7]; two weeks): complete treatment response
- tumor histology (H&E) ([7]; two weeks): complete tumor necrosis
- morphometric analysis of tumor size and cell count ([7]; two weeks, vs saline): significant reduction in tumor size and cell count
- proliferating (PCNA) cells ([7]; two weeks, vs saline): markedly reduced number of proliferating cells
- CD3+ T-lymphocyte infiltration ([7]; within treated tumor margin, two weeks): enhanced CD3+T-lymphocyte infiltration

— patent US12661404B2, “Methods and materials for tissue ablation” (Mayo Foundation for Medical Education and Research, priority 2020, dated 2026)
